From patent US12479840B2, “HMG-CoA reductase degradation inducing compound” (Uppthera, priority 2020, dated 2025)

Target: T1, HMG-CoA reductase (Homo sapiens, UniProt P04035)
T1 construct: endogenous in cells; host or cells: HepG2 (Korea Cell Line Bank)
T1 sequence (P04035 1-888): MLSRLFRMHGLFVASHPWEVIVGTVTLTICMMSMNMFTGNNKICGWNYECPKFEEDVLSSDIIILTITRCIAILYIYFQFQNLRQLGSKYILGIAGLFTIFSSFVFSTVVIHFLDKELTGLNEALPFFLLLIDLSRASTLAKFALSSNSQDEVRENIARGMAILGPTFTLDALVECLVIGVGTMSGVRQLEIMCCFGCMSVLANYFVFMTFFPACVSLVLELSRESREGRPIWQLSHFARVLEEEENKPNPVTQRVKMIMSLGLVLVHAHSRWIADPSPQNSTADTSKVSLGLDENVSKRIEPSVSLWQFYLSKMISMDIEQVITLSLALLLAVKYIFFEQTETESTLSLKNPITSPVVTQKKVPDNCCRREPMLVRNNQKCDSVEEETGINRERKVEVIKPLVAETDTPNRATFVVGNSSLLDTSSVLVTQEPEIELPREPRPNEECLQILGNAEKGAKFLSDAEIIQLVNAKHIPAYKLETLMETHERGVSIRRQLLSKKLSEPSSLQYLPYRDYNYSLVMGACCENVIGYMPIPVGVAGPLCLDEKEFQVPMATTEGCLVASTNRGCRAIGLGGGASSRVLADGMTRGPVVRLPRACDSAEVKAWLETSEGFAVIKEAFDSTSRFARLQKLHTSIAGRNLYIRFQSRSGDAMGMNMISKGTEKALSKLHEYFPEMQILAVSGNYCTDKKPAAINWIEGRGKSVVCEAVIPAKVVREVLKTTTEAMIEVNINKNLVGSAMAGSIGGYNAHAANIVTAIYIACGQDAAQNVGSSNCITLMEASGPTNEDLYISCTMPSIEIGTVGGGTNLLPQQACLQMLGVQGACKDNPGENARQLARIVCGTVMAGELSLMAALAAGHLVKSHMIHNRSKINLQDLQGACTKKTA
Experiment: HMG-CoA reductase (HMGCR) degradation in HepG2 cells by western blotting
Assay type: cell-based
Settings: treated for 18 hours, ratio of HMG-CoA reductase to GAPDH, read-out: DC50
How it was run: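 HepG2 cells (passage P105–P110) treated 18 hours with compounds in 10-point three-fold dilutions from 3 μM. RIPA lysates (15 μg protein, BCA-quantified) run on SDS-PAGE and immunoblotted for HMGCR (1:500) with GAPDH (1:20000) as loading control, primary antibodies 16 hours at 4° C.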

Row | SMILES | DC50 [nM]
1 | C[C@H]1C=C2C=C[C@H](C)[C@H](CC[C@@H]3C[C@@H](O[Si](C)(C)C(C)(C)C)CC(=O)O3)[C@H]2[C@@H](OC(=O)NCCCCCN2CCC(Nc3cccc4c3C(=O)N(C3CCC(=O)NC3=O)C4=O)CC2)C1 (stereo partly drawn) [Compound 124, (1S,3R,7S,8S,8aR)-8-(2-((2R,4R)-4-((tert-butyldimethylsilyl)oxy)-6-oxotetrahydro-2H-pyran-2-yl)ethyl)-3,7-dimethyl-1,2,3,7,8,8a-hexahydronaphthalen-1-yl (5-(4-((2-(2,6-dioxopiperidin-3-yl)-1,3-dioxoisoindolin-4-yl)amino)piperidin-1-yl)pentyl)carbamate] | < 50
2 | C[C@H]1C=C2C=C[C@H](C)[C@H](CC[C@@H]3C[C@@H](O[Si](C)(C)C(C)(C)C)CC(=O)O3)[C@H]2[C@@H](OC(=O)NCCCCCCN2CCC(Nc3cccc4c3C(=O)N(C3CCC(=O)NC3=O)C4=O)CC2)C1 (stereo partly drawn) [Compound 125, (1S,3R,7S,8S,8aR)-8-(2-((2R,4R)-4-((tert-butyldimethylsilyl)oxy)-6-oxotetrahydro-2H-pyran-2-yl)ethyl)-3,7-dimethyl-1,2,3,7,8,8a-hexahydronaphthalen-1-yl (6-(4-((2-(2,6-dioxopiperidin-3-yl)-1,3-dioxoisoindolin-4-yl)amino)piperidin-1-yl)hexyl)carbamate] | 50 to 500
3 | C[C@H]1C=C2C=C[C@H](C)[C@H](CC[C@@H]3C[C@@H](O)CC(=O)O3)[C@H]2[C@@H](OC(=O)NCCCCCN2CCC(Nc3cccc4c3C(=O)N(C3CCC(=O)NC3=O)C4=O)CC2)C1 (stereo partly drawn) [Compound 126, (1S,3R,7S,8S,8aR)-8-(2-((2R,4R)-4-hydroxy-6-oxotetrahydro-2H-pyran-2-yl)ethyl)-3,7-dimethyl-1,2,3,7,8,8a-hexahydronaphthalen-1-yl (5-(4-((2-(2,6-dioxopiperidin-3-yl)-1,3-dioxoisoindolin-4-yl)amino)piperidin-1-yl)pentyl)carbamate] | < 50
4 | C[C@H]1C=C2C=C[C@H](C)[C@H](CC[C@@H]3C[C@@H](O)CC(=O)O3)[C@H]2[C@@H](OC(=O)NCCCCCCN2CCC(Nc3cccc4c3C(=O)N(C3CCC(=O)NC3=O)C4=O)CC2)C1 (stereo partly drawn) [Compound 127, (1S,3R,7S,8S,8aR)-8-(2-((2R,4R)-4-hydroxy-6-oxotetrahydro-2H-pyran-2-yl)ethyl)-3,7-dimethyl-1,2,3,7,8,8a-hexahydronaphthalen-1-yl (6-(4-((2-(2,6-dioxo piperidin-3-yl)-1,3-dioxoisoindolin-4-yl)amino)piperidin-1-yl)hexyl)carbamate] | 50 to 500
5 | C[C@H]1C=C2C=C[C@H](C)[C@H](CC[C@@H]3C[C@@H](O[Si](C)(C)C(C)(C)C)CC(=O)O3)[C@H]2[C@@H](OC(=O)NCCOCCNC(=O)COc2cccc3c2C(=O)N(C2CCC(=O)NC2=O)C3=O)C1 (stereo partly drawn) [Compound 128, (1S,3R,7S,8S,8aR)-8-(2-((2R,4R)-4-((tert-butyldimethylsilyl)oxy)-6-oxotetrahydro-2H-pyran-2-yl)ethyl)-3,7-dimethyl-1,2,3,7,8,8a-hexahydronaphthalen-1-yl (2-(2-(2-((2-(2,6-dioxopiperidin-3-yl)-1,3-dioxoisoindolin-4-yl)oxy)acetamido)ethoxy)ethyl)carbamate] | < 50
6 | C[C@H]1C=C2C=C[C@H](C)[C@H](CC[C@@H]3C[C@@H](O)CC(=O)O3)[C@H]2[C@@H](OC(=O)NCCOCCNC(=O)COc2cccc3c2C(=O)N(C2CCC(=O)NC2=O)C3=O)C1 (stereo partly drawn) [Compound 129, (1S,3R,7S,8S,8aR)-8-(2-((2R,4R)-4-hydroxy-6-oxotetrahydro-2H-pyran-2-yl)ethyl)-3,7-dimethyl-1,2,3,7,8,8a-hexahydronaphthalen-1-yl (2-(2-(2-((2-(2,6-dioxopiperidin-3-yl)-1,3-dioxoisoindolin-4-yl)oxy)acetamido)ethoxy)ethyl)carbamate] | < 50
7 | C[C@H]1C=C2C=C[C@H](C)[C@H](CC[C@@H]3C[C@@H](O[Si](C)(C)C(C)(C)C)CC(=O)O3)[C@H]2[C@@H](OC(=O)NCCCOC2CCN(C(=O)COc3cccc4c3C(=O)N(C3CCC(=O)NC3=O)C4=O)CC2)C1 (stereo partly drawn) [Compound 134, (1S,3R,7S,8S,8aR)-8-(2-((2R,4R)-4-((tert-butyldimethylsilyl)oxy)-6-oxotetrahydro-2H-pyran-2-yl)ethyl)-3,7-dimethyl-1,2,3,7,8,8a-hexahydronaphthalen-1-yl (3-((1-(2-((2-(2,6-dioxopiperidin-3-yl)-1,3-dioxoisoindolin-4-yl)oxy)acetyl)piperidin-4-yl)oxy)propyl)carbamate] | 50 to 500
8 | C[C@H]1C=C2C=C[C@H](C)[C@H](CC[C@@H]3C[C@@H](O)CC(=O)O3)[C@H]2[C@@H](OC(=O)NCCCOC2CCN(C(=O)COc3cccc4c3C(=O)N(C3CCC(=O)NC3=O)C4=O)CC2)C1 (stereo partly drawn) [Compound 135, (1S,3R,7S,8S,8aR)-8-(2-((2R,4R)-4-hydroxy-6-oxotetrahydro-2H-pyran-2-yl)ethyl)-3,7-dimethyl-1,2,3,7,8,8a-hexahydronaphthalen-1-yl (3-((1-(2-((2-(2,6-dioxopiperidin-3-yl)-1,3-dioxoisoindolin-4-yl)oxy)acetyl)piperidin-4-yl)oxy)propyl)carbamate] | < 50
9 | C[C@H]1C=C2C=C[C@H](C)[C@H](CC[C@@H]3C[C@@H](O[Si](C)(C)C(C)(C)C)CC(=O)O3)[C@H]2[C@@H](OC(=O)NCCOCCOCCNC(=O)COc2cccc3c2C(=O)N(C2CCC(=O)NC2=O)C3=O)C1 (stereo partly drawn) [Compound 138, (1S,3R,7S,8S,8aR)-8-(2-((2R,4R)-4-((tert-butyldimethylsilyl)oxy)-6-oxotetrahydro-2H-pyran-2-yl)ethyl)-3,7-dimethyl-1,2,3,7,8,8a-hexahydronaphthalen-1-yl (2-(2-(2-(2-((2-(2,6-dioxopiperidin-3-yl)-1,3-dioxoisoindolin-4-yl)oxy)acetamido)ethoxy)ethoxy)ethyl)carbamate] | < 50
10 | C[C@H]1C=C2C=C[C@H](C)[C@H](CC[C@@H]3C[C@@H](O)CC(=O)O3)[C@H]2[C@@H](OC(=O)NCCOCCOCCNC(=O)COc2cccc3c2C(=O)N(C2CCC(=O)NC2=O)C3=O)C1 (stereo partly drawn) [Compound 139, (1S,3R,7S,8S,8aR)-8-(2-((2R,4R)-4-hydroxy-6-oxotetrahydro-2H-pyran-2-yl)ethyl)-3,7-dimethyl-1,2,3,7,8,8a-hexahydronaphthalen-1-yl (2-(2-(2-(2-((2-(2,6-dioxopiperidin-3-yl)-1,3-dioxoisoindolin-4-yl)oxy)acetamido)ethoxy)ethoxy)ethyl)carbamate] | 50 to 500
11 | C[C@H]1C=C2C=C[C@H](C)[C@H](CC[C@@H]3C[C@@H](O[Si](C)(C)C(C)(C)C)CC(=O)O3)[C@H]2[C@@H](OC(=O)NCCOCCOCC(=O)Nc2cccc3c2C(=O)N(C2CCC(=O)NC2=O)C3=O)C1 (stereo partly drawn) [Compound 142, (1S,3R,7S,8S,8aR)-8-(2-((2R,4R)-4-((tert-butyldimethylsilyl)oxy)-6-oxotetrahydro-2H-pyran-2-yl)ethyl)-3,7-dimethyl-1,2,3,7,8,8a-hexahydronaphthalen-1-yl (2-(2-(2-((2-(2,6-dioxopiperidin-3-yl)-1,3-dioxoisoindolin-4-yl)amino)-2-oxoethoxy)ethoxy)ethyl)carbamate] | 50 to 500
12 | C[C@H]1C=C2C=C[C@H](C)[C@H](CC[C@@H]3C[C@@H](O)CC(=O)O3)[C@H]2[C@@H](OC(=O)NCCOCCOCC(=O)Nc2cccc3c2C(=O)N(C2CCC(=O)NC2=O)C3=O)C1 (stereo partly drawn) [Compound 143, (1S,3R,7S,8S,8aR)-8-(2-((2R,4R)-4-hydroxy-6-oxotetrahydro-2H-pyran-2-yl)ethyl)-3,7-dimethyl-1,2,3,7,8,8a-hexahydronaphthalen-1-yl (2-(2-(2-((2-(2,6-dioxopiperidin-3-yl)-1,3-dioxoisoindolin-4-yl)amino)-2-oxoethoxy)ethoxy)ethyl)carbamate] | < 50
